Results: US20230218563A1, “METHODS FOR TREATING OR PREVENTING CHRONIC KIDNEY DISEASE” (Arthrosi Therapeutics, Inc., priority 2020, published 2023)
Values joined by “and” are separate entries in the source; they are usually repeats but may differ in a detail not shown here. Equal entries are not always repeated. Where two headings read alike, the source gives them in different places.

Key:
[1] = 4-week toxicity study in Sprague-Dawley rats; format: in vivo
Text: (§1) On Day 29, surviving TS animals (all animals in study) were euthanized and subjected to a full gross necropsy, which included a macroscopic examination of the external surface of the body, all orifices, cranial cavity, external surface of the brain, the thoracic, abdominal and pelvic cavities and their viscera, cervical areas, carcass and genitalia. Organs were weighed as soon as possible from all main study animals at the scheduled necropsies. Tissues from Groups 1 and 5 animals at the terminal sacrifice, from animals found dead or moribund-sacrificed, and gross lesions from all animals, were embedded in paraffin, sectioned, stained with hematoxylin and eosin and examined microscopically by a board certified veterinary pathologist.

[2] = 4-week toxicity study in cynomolgus monkeys; format: in vivo
Text: as §1, with “from” for “from Groups 1 and 5”

[3] = Phase 1 single dose study, plasma pharmacokinetics in healthy adult males; format: in vivo, human; conditions: for AUC(0-t) / AUC(0-inf) / Tmax / Vd/F / half-life / Cmax: male, human, plasma, po; for Vd/F: read-out: Vz/F
Procedure: The dose groups included Cohort 1 (15 mg or placebo, fasted, oral suspension), Cohort 2 (50 mg or placebo, fasted, suspension), Cohort 3 (100 mg or placebo, fasted, oral suspension), Cohort 4 (150 mg or placebo, fasted, oral suspension), Cohort 6 (50 mg or placebo, fed, oral suspension), and Cohort 7 (50 mg or placebo, fasted, oral capsule). […] An additional 8 subjects received placebo.
The results are consistent with observation in animal testing and higher exposure of S-enantiomer was attributed to the conversion of the R-enantiomer in vivo.

serum uric acid (sUA) [4] = assay: Phase 1 multiple ascending dose study, pharmacodynamics (serum uric acid) in healthy adult males; format: in vivo, human; conditions: for reduction of sUA concentration at trough / reduction of sUA concentration, maximum: fasted, Day 10
Text: An additional 6 subjects received placebo.
Steady-state sUA lowering effect was achieved after approximately 5 days.

serum uric acid (sUA) [5] = assay: Phase 2a cross-over study in adults with gout, serum uric acid; format: in vivo, human
[6] = tested on: urine albumin-to-creatinine ratio (UACR); assay: Phase 2a study, UACR in a subject with albuminuria; format: in vivo, human; conditions: one subject with albuminuria, baseline 96 mg/g; sequential 7-day periods: Compound 1 50 mg (Day 7), Compound 1 50 mg/allopurinol 300 mg (Day 14), allopurinol 300 mg (Day 21)
Text: (§2) Urine samples were collected for assessment of uric acid excretion. Laboratory safety tests, vital signs, and electrocardiograms were collected throughout the study.

[7] = Phase 2a study, safety and tolerability in gout patients; format: in vivo, human; conditions: 50 mg once daily
Text: as §2

[8] = Solubility of test articles in HBSS assay buffer; conditions: all tested concentrations, highest 10 μM
Procedure: Before the experiment, the medium was removed and the cells were washed twice with 100 μL of HBSS without Cl^−. Uptake experiments were carried out at 37±1° C. in 50 μL of HBSS without Cl^−, pH 7.4 containing the probe substrate (20 μM uric acid) and the test article (TA) or solvent.

[9] = rats, oral gavage 2, 5, 15 and 50 mg/kg/day, 28 days
[10] = cynomolgus monkeys, oral 10, 30 and 150 mg/kg/day, 28 days
[11] = 15 mg single oral, fasted, suspension (C1)
[12] = 50 mg single oral, fasted, IR capsule (C7)
[13] = 50 mg single oral, fasted, suspension (C2)
[14] = 50 mg single oral, fed vs fasted
[15] = 50 mg single oral, fed, suspension (C6)
[16] = 100 mg single oral, fasted, suspension (C3)
[17] = 150 mg single oral, fasted, suspension (C4)
[18] = dose proportionality, 15 to 150 mg fasted
[19] = gout patients (sUA>7 mg/dL), once daily, Compound 1 50 mg, febuxostat 40 mg, allopurinol 300 mg, alone or combined

SMILES: [2H]c1c([2H])c([2H])c2c(C(=O)c3cc(Br)c(O)c(Br)c3)c(C(C)O)oc2c1[2H] (racemic) [Compound 1, (3,5-dibromo-4-hydroxyphenyl)(2-(1-hydroxyethyl)benzofuran-3-yl-4,5,6,7-d4)methanone]
- NOAEL at 28 days ([1]; Sprague-Dawley, rat, in vivo, po): 50 mg/kg
- NOAEL, human equivalent ([1]; rat, in vivo): 500 mg
- dose with kidney weight increase, female ([1]; rats, 28 days oral): 50 mg/kg/day
- dose with liver weight increase, female ([1]; rats, 28 days oral): ≥ 15 mg/kg/day
- dose with liver weight increase, male ([1]; rats, 28 days oral): 50 mg/kg/day
- findings at high or mid-high dose after 4 week recovery period ([1]; rats, 28 days oral then 4 week recovery): resolved
- clinical signs [1, 9]: No abnormal clinical signs
- effect on food consumption, body weight [1, 9]: no effect
- mortality [1, 9]: No mortality
- NOAEL, human equivalent ([2]; cynomolgus monkey, in vivo): 600 mg
- NOAEL at 28 days ([2]; cynomolgus monkey, in vivo, po): 30 mg/kg
- findings after 4 week recovery period ([2]; cynomolgus monkeys, 28 days oral then 4 week recovery): No finding
- liver weight ([2]; cynomolgus monkeys, male, 150 mg/kg/day, 28 days): trended higher in male at 150 mg/kg/day, but no statistical difference
- clinical signs [2, 10]: No abnormal clinical signs
- effect on food consumption, body weight [2, 10]: no effect
- mortality [2, 10]: No mortality
- CL/F [3, 11]: 1.02 L/h
- Cmax (total) [3, 11]: 1060 ng/mL
- CL/F [3, 12]: 1.01 L/h
- Cmax (total) [3, 12]: 3970 ng/mL
- CL/F [3, 13]: 0.906 L/h
- Cmax (total) [3, 13]: 3330 ng/mL
- change of Cmax in the fed state [3, 14]: ~33%
- decrease of AUC with food [3, 14]: approximately 13%
- CL/F [3, 15]: 1.03 L/h
- Cmax (total) [3, 15]: 2210 ng/mL
- Tmax (median) [3, 15]: 8 h and 8.00 h
- CL/F [3, 16]: 1.04 L/h
- Cmax (total) [3, 16]: 5510 ng/mL
- CL/F [3, 17]: 0.944 L/h
- Cmax (total) [3, 17]: 8330 ng/mL
- Power model intercept, AUCinf (μg · h/mL) [3, 18]: 0.944
- Power model intercept, Cmax (μg/mL) [3, 18]: 0.0966
- AUC(0-t) ([3]; 15 mg, 15 mg single oral, fasted, suspension (C1), read-out: AUC0-24 (total)): 12100 ng·h/mL
- AUC(0-inf) ([3]; 15 mg, 15 mg single oral, fasted, suspension (C1), read-out: AUCinf (total)): 15000 ng·h/mL
- Tmax ([3]; 15 mg, 15 mg single oral, fasted, suspension (C1), read-out: Tmax (median)): 3.5 h
- Vd/F ([3]; 15 mg, 15 mg single oral, fasted, suspension (C1)): 14.1 L
- half-life ([3]; 15 mg, 15 mg single oral, fasted, suspension (C1), read-out: t1/2 (converted)): 9.69 h
- AUC(0-t) ([3]; 50 mg, 50 mg single oral, fasted, IR capsule (C7), read-out: AUC0-24 (total)): 41900 ng·h/mL
- AUC(0-inf) ([3]; 50 mg, 50 mg single oral, fasted, IR capsule (C7), read-out: AUCinf (total)): 51300 ng·h/mL
- Tmax ([3]; 50 mg, 50 mg single oral, fasted, IR capsule (C7), read-out: Tmax (median)): 1.75 h
- Vd/F ([3]; 50 mg, 50 mg single oral, fasted, IR capsule (C7)): 14.9 L
- half-life ([3]; 50 mg, 50 mg single oral, fasted, IR capsule (C7), read-out: t1/2 (converted)): 10.5 h
- AUC(0-t) ([3]; 50 mg, 50 mg single oral, fasted, suspension (C2), read-out: AUC0-24 (total)): 42600 ng·h/mL
- AUC(0-inf) ([3]; 50 mg, 50 mg single oral, fasted, suspension (C2), read-out: AUCinf (total)): 59600 ng·h/mL
- Tmax ([3]; 50 mg, 50 mg single oral, fasted, suspension (C2), read-out: Tmax (median)): 3 h
- Vd/F ([3]; 50 mg, 50 mg single oral, fasted, suspension (C2)): 16 L
- half-life ([3]; 50 mg, 50 mg single oral, fasted, suspension (C2), read-out: t1/2 (converted)): 12.5 h
- AUC(0-inf) ([3]; 50 mg, 50 mg single oral, fasted, read-out: Geometric Least Squares Mean AUCinf, Fasted): 57400 ng·h/mL
- AUC(0-t) ([3]; 50 mg, 50 mg single oral, fasted, read-out: Geometric Least Squares Mean AUClast, Fasted): 57100 ng·h/mL
- Cmax ([3]; 50 mg, 50 mg single oral, fasted, read-out: Geometric Least Squares Mean Cmax, Fasted): 3250 ng/mL
- Cmax ([3]; 50 mg, 50 mg single oral, fed (high-fat, high-calorie meal), read-out: Geometric Least Squares Mean Cmax, Fed): 2170 ng/mL
- AUC(0-t) ([3]; 50 mg, 50 mg single oral, fed, suspension (C6), read-out: AUC0-24 (total)): 34000 ng·h/mL
- AUC(0-inf) ([3]; 50 mg, 50 mg single oral, fed, suspension (C6), read-out: AUCinf (total)): 51200 ng·h/mL
- Tmax ([3]; 50 mg, 50 mg single oral, fed, suspension (C6), read-out: Tmax (median)): 8 h
- Vd/F ([3]; 50 mg, 50 mg single oral, fed, suspension (C6)): 16.3 L
- half-life ([3]; 50 mg, 50 mg single oral, fed, suspension (C6), read-out: t1/2 (converted)): 11.7 h
- AUC(0-inf) ([3]; 50 mg, 50 mg single oral, fed, read-out: Geometric Least Squares Mean AUCinf, Fed): 49900 ng·h/mL
- AUC(0-t) ([3]; 50 mg, 50 mg single oral, fed, read-out: Geometric Least Squares Mean AUClast, Fed): 49600 ng·h/mL
- AUC(0-t) ([3]; 100 mg, 100 mg single oral, fasted, suspension (C3), read-out: AUC0-24 (total)): 71000 ng·h/mL
- AUC(0-inf) ([3]; 100 mg, 100 mg single oral, fasted, suspension (C3), read-out: AUCinf (total)): 99700 ng·h/mL
- Tmax ([3]; 100 mg, 100 mg single oral, fasted, suspension (C3), read-out: Tmax (median)): 4 h
- Vd/F ([3]; 100 mg, 100 mg single oral, fasted, suspension (C3)): 18.6 L
- half-life ([3]; 100 mg, 100 mg single oral, fasted, suspension (C3), read-out: t1/2 (converted)): 12.5 h
- AUC(0-t) ([3]; 150 mg, 150 mg single oral, fasted, suspension (C4), read-out: AUC0-24 (total)): 114000 ng·h/mL
- AUC(0-inf) ([3]; 150 mg, 150 mg single oral, fasted, suspension (C4), read-out: AUCinf (total)): 173000 ng·h/mL
- Tmax ([3]; 150 mg, 150 mg single oral, fasted, suspension (C4), read-out: Tmax (median)): 4 h
- Vd/F ([3]; 150 mg, 150 mg single oral, fasted, suspension (C4)): 15.5 L
- half-life ([3]; 150 mg, 150 mg single oral, fasted, suspension (C4), read-out: t1/2 (converted)): 12 h
- Tmax ([3]; single oral dose, fasted conditions, read-out: median Tmax, range over doses): 3 to 5 h
- half-life ([3]; single oral doses 15 to 150 mg, read-out: average terminal half-life): 10 to 13 h
- total plasma clearance ([3]; single oral doses 15 to 150 mg): approximately 1.0 L/hr
- volume of distribution ([3]; single oral doses 15 to 150 mg): 14 to 18 L
- reduction of sUA concentration at trough (serum uric acid (sUA) [4]; 25 mg oral capsules once daily): 41%
- reduction of sUA concentration, maximum (serum uric acid (sUA) [4]; 25 mg oral capsules once daily): up to 44%
- reduction of sUA concentration at trough (serum uric acid (sUA) [4]; 50 mg oral capsules once daily): 58%
- reduction of sUA concentration, maximum (serum uric acid (sUA) [4]; 50 mg oral capsules once daily): up to 67%
- reduction of sUA concentration at trough (serum uric acid (sUA) [4]; 75 mg oral capsules once daily): 65%
- reduction of sUA concentration, maximum (serum uric acid (sUA) [4]; 75 mg oral capsules once daily): up to 69%
- time to steady-state sUA lowering effect (serum uric acid (sUA) [4]; once-daily 25, 50 or 75 mg): approximately 5 days
- patients with sUA levels below 5 mg/dL (serum uric acid (sUA) [5]; [19]): 93%
- patients with sUA levels below 6 mg/dL (serum uric acid (sUA) [5]; [19]): 96%
- sUA level at 24 hr post-dose in all patients (serum uric acid (sUA) [5]; gout patients, 7 days dosing, 50 mg): below 6 mg/dL
- sUA after treatment in mildly renal impaired patients (serum uric acid (sUA) [5]; gout patients, Compound 1 50 mg once daily, from 8.6±1.1 mg/dL): 4.5 ± 0.8 mg/dL
- mean sUA level reached at maximum (serum uric acid (sUA) [5]; gout patients, mean baseline 8.9 mg/dL, once daily, Compound 1 50 mg, febuxostat 40 mg, allopurinol 300 mg, alone (Day 7/Day 21) or combined): 4.2 mg/dL
- reduction of mean sUA from baseline (serum uric acid (sUA) [5]; gout patients, once daily, Compound 1 50 mg, febuxostat 40 mg, allopurinol 300 mg, alone (Day 7/Day 21) or combined): 53%
- sUA % change from baseline (serum uric acid (sUA) [5]; one subject with albuminuria, sequential 7-day periods: Compound 1 50 mg (Day 7), Compound 1 50 mg/allopurinol 300 mg (Day 14), allopurinol 300 mg (Day 21)): −50.9%
- UACR [6]: 41 mg/g
- UACR % change from baseline [6]: −57.4%
- laboratory or ECG abnormalities [7]: no clinically significant laboratory or ECG abnormalities
- tolerability [7]: well tolerated
- solubility in HBSS buffer [8]: soluble
